Values joined by “and” are separate entries in the source; they are usually repeats but may differ in a detail not shown here. Identical values can stand only once. Like-named read-outs stand apart in the source and are kept apart here.
Columns and labels:
[1] = test system: advanced solid tumors, including melanoma, RCC (renal cell carcinoma), and NSCLC (non-small cell lung cancer); test: Tumor response by RECIST v.1.1; format: in vivo, human
Description: The decision to escalate the dose was based on the conventional 3+3 design and observed incidences of dose-limiting toxicities (DLTs). Each treatment cycle was defined as 28 days. To be evaluable for DLT, a subject must have developed DLT, or received the minimum 75% of the planned HBI-8000 dose within the 28-day DLT evaluation period in the absence of treatment delays due to toxicities. Subjects experiencing DLT within the first two weeks after having received 100% of assigned dose of HBI-8000 are also evaluable for DLT. Unacceptable toxicities were defined as grade 3 or higher non-hematologic and hematologic toxicities with clinical complications. Unacceptable toxicities observed over the first 28 days following HBI-8000 administration were considered as DLTs. The RP2D was identified as the highest dose at which the DLT incidence was less than 33.3%. HBI-8000 administration continued until disease progression or unacceptable toxicity was observed. The efficacy of the combination was further evaluated in an expanded cohort of selected patient populations at RP2D based on an objective response rate according to Response Evaluation Criteria in Solid Tumors (RECIST) version 1.1 criteria, progression-free survival, and duration of responses.
Tumor assessments were performed every 8 weeks until treatment discontinuation, then every 12 (±1) weeks in subjects in whom disease progression has not yet been observed, and followed the guidelines specified by RECIST v.1.1 and immune-related Response Evaluation Criteria In Solid Tumors (iRECIST).

[2] = Non-compartmental PK analysis of HBI-8000 plasma concentrations; format: in vivo, human; details: for AUC0-7/D / AUC0-24/D / Cmax/D / CPre/D: dose-normalized; for AUC from 0 to 7 h post-dose: read-out: AUC0-7; for AUC(0-t): read-out: AUC0-24
Description: Statistical analyses of safety, tolerability, and anti-tumor activity were primarily descriptive in nature. Toxicities were tabulated by type and grade. The safety population included all patients who received ≥1 dose of HBI-8000 and nivolumab. Continuous variables were summarized using descriptive statistics and categorical variables were summarized with number and percentage at each category. Pharmacokinetic parameters were derived using noncompartmental methods with Phoenix® WinNonlin® Version 6.4 (Certara, L. P., Princeton, NJ, USA).
Non-compartmental PK analysis for HBI-8000 was conducted in Phase 1b using serial plasma concentration data collected up to 24 hours post-dose for the first (Cycle 1 Day 1; C1D1) dose and up to 7 hours post-dose for the ninth (C2D1) dose of HBI-8000. In conjunction with PK, Holter monitors were used to record 12-lead continuous digital ECGs (under controlled conditions to minimize digital noise) on a baseline day (within 1-7 days prior to C1D1) and on C1D1 (Phase 1b only). Triplicate 10-second ECGs were extracted from the Holter flashcard at matched time-points on the baseline day and on C1D1 up to 4 hours post-dose and the PR, QRS, RR, and QT intervals were analyzed by a Central ECG Laboratory. Meal-times (breakfast) were standardized across both days and occurred after or ≥1 hour before the scheduled extraction times for triplicate ECGs. The measured QT data were corrected for heart rate using Fridericia (QTcF).

[3] = HBI-8000 + nivolumab, 3 NSCLC patients
[4] = HBI-8000 + nivolumab, 5 melanoma patients
[5] = HBI-8000 + nivolumab, 7 RCC patients
[6] = 20 mg, n = 2, individual values
[7] = C1D1, 20 mg, n = 3, geometric mean
[8] = C1D1, 30 mg, n = 7, geometric mean
[9] = C1D1, 40 mg, n = 7, geometric mean
[10] = C2D1, 20 mg, n = 2, individual values
[11] = C2D1, 30 mg, n = 3, geometric mean
[12] = C2D1, 40 mg, n = 4, geometric mean
[13] = human, plasma, oral, 20 mg, C1D1, 20 mg, n = 3, geometric mean
[14] = human, plasma, oral, 30 mg, C1D1, 30 mg, n = 7, geometric mean

With `Nc1cc(F)ccc1NC(=O)c1ccc(CNC(=O)/C=C/c2cccnc2)cc1` [HBI-8000, N-(2-amino-4-fluorophenyl)-4-[[[(2E)-1-oxo-3-(3-pyridinyl)-2-propen-1-yl]amino]methyl]benzamide] the “NSCLC, PR” value [1, 3] was 1 patients, the “NSCLC, stable disease” value [1, 3] was 2 patients and the “Melanoma, complete response (CR)” value [1, 4] was 1 patients. The “Melanoma, partial responses (PR)” value [1, 4] was 4 patients, the “Melanoma patients who responded” value ([1]; HBI-8000 + nivolumab, 5 melanoma patients, RECIST v.1.1) was 5 patients and the “RCC, PR” value [1, 5] was 2 patients. For the same compound, the “RCC, progressive disease” value [1, 5] was 4 patients, the “RCC, stable disease” value [1, 5] was 1 patients and the “earliest objective response, time of treatment” value ([1]; HBI-8000 + nivolumab, first scheduled tumor assessment, end of Cycle 2) was 8 weeks. The “longest time to response after treatment initiation” value ([1]; one patient, nivolumab and HBI-8000 ceased after 16 months) was 32 months, the “median plasma concentration at 4 hours, lower than Cmax by” value ([2]; 20 mg dose) was 17% and the “AUC0-7 Ratio (C2D1/C1D1)” value [2, 6] was 0.69 and 1.99. For the same compound, the “Cmax Ratio (C2D1/C1D1)” value [2, 6] was 1.06 and 1.80, the “median plasma concentration at 4 hours, lower than Cmax by” value ([2]; 30 mg dose) was 19% and the “AUC0-7 Ratio (C2D1/C1D1)” value ([2]; 30 mg, n = 3, geometric mean) was 1.37. For the same compound, the “Cmax Ratio (C2D1/C1D1)” value ([2]; 30 mg, n = 3, geometric mean) was 1.08, the “AUC0-7 Ratio (C2D1/C1D1)” value ([2]; 40 mg, n = 3, geometric mean) was 1.36 and the “Cmax Ratio (C2D1/C1D1)” value ([2]; 40 mg, n = 4, geometric mean) was 1.18. For the same compound, the “median plasma concentration at 4 hours, lower than Cmax by” value ([2]; 40-mg dose) was 15%, the “Accumulation, first versus ninth dose” value ([2]; BIW dosing, C1D1 vs C2D1) was “No significant accumulation” and the Cmax ([2]; C1D1, 20 mg oral, n = 3, geometric mean) was 104.9 ng/mL. For the same compound, the AUC0-7/D [2, 7] was 19.2 ng·h/mL/mg, the AUC0-24/D [2, 7] was 79.5 ng·h/mL/mg and the Cmax/D [2, 7] was 5.24 ng/mL/mg. It also gave a Cmax ([2]; C1D1, 30 mg oral, n = 7, geometric mean) of 117.6 ng/mL, an AUC0-7/D [2, 8] of 11.4 ng·h/mL/mg and an AUC0-24/D [2, 8] of 57.8 ng·h/mL/mg. For the same compound, the Cmax/D [2, 8] was 3.92 ng/mL/mg, the Cmax ([2]; C1D1, 40 mg oral, n = 7, geometric mean) was 259.3 ng/mL and the AUC0-7/D ([2]; C1D1, 40 mg, n = 6, geometric mean) was 24.3 ng·h/mL/mg. For the same compound, the AUC0-24/D [2, 9] was 92.2 ng·h/mL/mg, the Cmax/D [2, 9] was 6.49 ng/mL/mg and the Cmax ([2]; C2D1, 20 mg BIW, n = 2, individual values) was 83.1 ng/mL and 182 ng/mL. For the same compound, the AUC0-7 [2, 10] was 250 ng·h/mL and 728 ng·h/mL, the “CPre (pre-dose trough concentration)” value [2, 10] was 4.76 ng/mL and 4.79 ng/mL and the Tmax [2, 10] was 3.0 h. The AUC0-7/D [2, 10] was 12.5 ng·h/mL/mg and 36.4 ng·h/mL/mg, the CPre/D [2, 10] was 0.238 ng/mL/mg and 0.240 ng/mL/mg and the Cmax/D [2, 10] was 4.16 ng/mL/mg and 9.10 ng/mL/mg. For the same compound, the “CPre (pre-dose trough concentration)” value [2, 11] was 16.1 ng/mL, the AUC0-7/D [2, 11] was 13.1 ng·h/mL/mg and the CPre/D [2, 11] was 0.536 ng/mL/mg. The Cmax/D [2, 11] was 3.76 ng/mL/mg, the “CPre (pre-dose trough concentration)” value [2, 12] was 14.2 ng/mL and the AUC0-7/D [2, 12] was 23.2 ng·h/mL/mg. The CPre/D [2, 12] was 0.356 ng/mL/mg, the Cmax/D [2, 12] was 5.73 ng/mL/mg and the AUC from 0 to 7 h post-dose [2, 13] was 384 ng·h/mL. It also gave an AUC(0-t) [2, 13] of 1590 ng·h/mL, a Tmax ([2]; human, plasma, oral, 20 mg, C1D1, 20 mg, n = 3, median, read-out: tmax) of 6.6 h and an AUC from 0 to 7 h post-dose [2, 14] of 342 ng·h/mL. The AUC(0-t) [2, 14] was 1730 ng·h/mL, the Tmax ([2]; human, plasma, oral, 30 mg, C1D1, 30 mg, n = 7, median, read-out: tmax) was 6.5 h and the Cmax ([2]; human, plasma, oral, 30 mg, C2D1, 30 mg BIW, n = 3, geometric mean, read-out: Cmax) was 113 ng/mL. It also gave an AUC from 0 to 7 h post-dose ([2]; human, plasma, oral, 30 mg, C2D1, 30 mg, n = 3, geometric mean) of 392 ng·h/mL, a Tmax ([2]; human, plasma, oral, 30 mg, C2D1, 30 mg, n = 3, median, read-out: tmax) of 6.7 h and an AUC from 0 to 7 h post-dose ([2]; human, plasma, oral, 40 mg, C1D1, 40 mg, n = 6, geometric mean) of 973 ng·h/mL. The AUC(0-t) ([2]; human, plasma, oral, 40 mg, C1D1, 40 mg, n = 7, geometric mean) was 3690 ng·h/mL, the Tmax ([2]; human, plasma, oral, 40 mg, C1D1, 40 mg, n = 7, median, read-out: tmax) was 4.8 h and the Cmax ([2]; human, plasma, oral, 40 mg, C2D1, 40 mg BIW, n = 4, geometric mean, read-out: Cmax) was 229 ng/mL. It also gave an AUC from 0 to 7 h post-dose ([2]; human, plasma, oral, 40 mg, C2D1, 40 mg, n = 4, geometric mean) of 929 ng·h/mL, a Tmax ([2]; human, plasma, oral, 40 mg, C2D1, 40 mg, n = 4, median, read-out: tmax) of 6.8 h and a Tmax ([2]; human, plasma, oral, 40 mg, range across 20, 30 and 40 mg BIW dose cohorts, post dose, read-out: median time to peak plasma concentration (tmax)) of 5 to 7 h. For the same compound, the Cmax ([2]; human, plasma, po, 20 mg, C1D1, 20 mg oral, n = 3, geometric mean, read-out: Cmax) was 105 ng/mL, the Cmax ([2]; human, plasma, po, 30 mg, C1D1, 30 mg oral, n = 7, geometric mean, read-out: Cmax) was 118 ng/mL and the Cmax ([2]; human, plasma, po, 40 mg, C1D1, 40 mg oral, n = 7, geometric mean, read-out: Cmax) was 259 ng/mL.

— patent publication US20240252474A1, “METHODS AND COMPOSITIONS COMPRISING A CARDIO-TOLERATED HDAC INHIBITOR” (HUYABIO International, LLC, priority 2023, published 2024)
